Where two headings read alike, the source gives them in different places. Marks after values point to notes of the source that are not given here.
Columns and labels:
[1] = tested on: TIGK cells; settings: 18 h;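 also: flow cytometry of cells stained with PE annexin V plus Sytox green, with untreated or 0.1% DMSO-exposed cells as negative controls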
Protocol: The mouse macrophage cell line J774A.1 was grown in Dulbecco’s modified Eagle medium (DMEM) (Thermo Fisher Scientific, Waltham, MA) supplemented with 4.5 g/ml glucose, 10% fetal bovine serum (FBS), and 100 U/ml penicillin-streptomycin (Sigma-Aldrich, St. Louis, MO). HL60 (ATCC CCL240) cells were obtained from the American Type Culture Collection and cultured in Iscove’s modified Dulbecco’s medium (Sigma-Aldrich) supplemented with 20% fetal bovine serum (FBS) (Sigma-Aldrich).
The apoptotic activity of the compounds was determined using the phycoerythrin (PE) annexin V/dead cell apoptosis kit with Sytox green for flow cytometry (Invitrogen, Carlsbad, CA). Cells were grown in 12-well flat-bottom microtiter plates at an initial density 2 × 10^5 cells in 1.5-ml medium per well for 24 h. Following the incubation period, spent medium was replaced with fresh medium containing the desired concentration of the test compound and incubated for another 18 h. After trypsinization, cells were harvested by centrifuging at 250 × g for 4 min, and the cell pellet was suspended in 100 μl of binding buffer supplemented with 1 μl Sytox and 5 μl annexin V, followed by incubation at 37°C for 15 min. Samples were then diluted by adding 400-μl binding buffer, and flow cytometry was performed using a FACScalibur flow cytometer (Becton, Dickinson, Franklin Lakes, NJ), measuring the fluorescence emissions at 530 nm and 575 nm.

[2] = tested on: P. gingivalis adherence to S. gordonii; test: organism not typed; type: cell-based, Porphyromonas gingivalis; settings: for dose-dependent inhibition of P. gingivalis adherence and biofilm formation: 5, 10, 15, 25, and 40 μM; for inhibition at 40 µM: read-out: inhibition of P. gingivalis adherence to S. gordonii and biofilm formation
Protocol: Using the two species biofilm model described by Patil et al. ([19]), the in vitro effectiveness of the compounds was determined by their ability to inhibit P. gingivalis adherence to S. gordonii and subsequent biofilm formation at an initial concentration of 40 μM.
To quantify P. gingivalis adherence to S. gordonii, a two-species biofilm model was employed as previously described ([19], [33]). Briefly, 20 ml of an overnight culture of S. gordonii was centrifuged at 5600 × g (MIKRO 220R, Hettich Zentrifugen) for 10 min, and the harvested cells were washed with phosphate-buffered saline (PBS; 10 mM Na2HPO4, […], […], and 2.7 mM KCl [pH 7.2]). To label S. gordonii, the cell pellet was suspended in 1 ml of PBS containing 20 μl of 5 mg/ml of hexidium iodide (Molecular Probes; Eugene, OR) and incubated in the dark for 15 min at room temperature with gentle shaking. The labeled cells were than centrifuged at 5600 × g for 5 min and washed twice with PBS. Finally, the cells were suspended in PBS to a final optical density at 600 nm (OD600) of 0.6, and 1 ml of labeled S. gordonii cells was added to each well of a 12-well microtiter plate (Greiner Bio-one, Monroe, NC) containing a circular coverslip (Fisher Scientific, Hampton, NH). Plates were incubated at 37°C for 24 h under anaerobic conditions on a rotary shaker. On the following day, cells from a 10-ml overnight P. gingivalis culture were harvested as described above and fluorescent labeling was performed by incubating the cells in 1 ml PBS containing 20 μl of 5(6)-carboxyfluorescein N-hydroxysuccinimide ester (4 mg/ml) (Thermo Fisher, Waltham, MA) for 30 min in the dark at room temperature with gentle shaking. After being washed two times with PBS, the labeled cells were suspended in PBS at a final OD600 of 0.4. While this reaction was carried out, unattached S. gordonii cells were removed from each well by aspiration, and subsequently, 1 ml of labeled P. gingivalis cells alone or with the desired concentration of the compounds to be tested was added to each well of the microtiter plates. Plates were incubated at 37°C for 24 h under anaerobic conditions. The compounds that were tested were initially dissolved in dimethyl sulfoxide (DMSO) to generate a 1,000× stock solution and subsequently diluted in the cell suspensions to obtain the working concentration. For the control wells, DMSO without a test compound was added to a final concentration of 0.1% in order to maintain a constant DMSO concentration in all wells.
Unbound P. gingivalis cells were removed from each well by aspiration, and the coverslips were washed twice with 5 ml of PBS. Biofilms were then fixed with 4% paraformaldehyde for 5 min in the dark and washed two times with 5 ml of PBS. The coverslips were mounted on a glass slide (Sigma-Aldrich) containing a drop of Prolong gold anti-fade agent (Molecular Probes, Eugene, OR) and sealed with transparent nail polish.
Visualization of the biofilms was carried out by laser scanning confocal microscopy using an SP8 confocal microscope (Leica Microsystems, Inc., Buffalo Grove, IL), with the laser source settings at 488 nm and 552 nm to visualize P. gingivalis and S. gordonii, respectively. Images were collected using a Z plane scan for a depth of 25 μm using a Z step thickness of 0.7 μm. Background noise was reduced using the software that was supplied with the Leica SP8 microscope. Three-dimensional reconstruction of the Z plane scans and quantification of the red and green channel fluorescence were performed using Volocity 6.3 image analysis software (PerkinElmer, Waltham, MA).

[3] = tested on: P. gingivalis virulence; test: murine model of periodontitis (alveolar bone loss); type: in vivo, BALB/c/ByJ mice; settings: for alveolar bone loss relative to sham-infected mice / alveolar bone loss versus infected untreated mice: mice infected with S. gordonii and P. gingivalis, compound 40 μM; for alveolar bone loss versus infected untreated mice: P < 0.001
Protocol: The in vivo activity of compounds N7, N17, and V8 was determined using a murine model of periodontitis as described by Deap et al. ([16]). […] Therefore, P. gingivalis virulence was assessed by alveolar bone loss, which was determined by measuring the distance from the alveolar bone crest (ABC) to the cemento enamel junction (CEJ).
The protocol used in this study (protocol 16486) was approved by the Institutional Animal Care and Use Committee at the University of Louisville under federal guidelines for the use and care of laboratory animals. Ten-week-old BALB/c/ByJ specific-pathogen-free mice were obtained from Jackson Laboratory (Bar Harbor, ME) and housed in the University of Louisville Research Resource Center animal facility. During the entire course of the study, mice were fed with Lab Diet 5001 (Purina Mills, LLC, Gray Summit, MO).
Oral infection of the mice was carried out essentially as described by Deap et al. ([18]). Prior to infection, mice were subjected to a combined antibiotic treatment for 10 days by providing animals with water ad libitum containing 800 μg/ml sulfamethoxazole (MP Biomedical, Solon, OH) and 400 μg/ml trimethoprim (Sigma, St. Louis, MO). Four days after the conclusion of the antibiotic treatment, mice were infected by oral gavage with 10^9 CFU of S. gordonii suspended in 2% carboxymethylcellulose (CMC; MP Biomedical) in sterile PBS using a 2.25-mm feeding needle (Popper and Son, Inc., New Hyde Park, NY). Infections were conducted every other day for a period of 10 days. Subsequently, mice were infected with 10^9 CFU P. gingivalis suspended in 2% CMC in PBS alone or in 2% CMC in PBS containing the small-molecule inhibitors every other day for 10 days. After the last infection with P. gingivalis, the mice were rested for 47 days and then euthanized by carbon dioxide asphyxiation.
To obtain the mouse skulls, the heads were removed and autoclaved for 15 min to remove flesh and musculature. The defleshed skulls were then immersed in 3% hydrogen peroxide overnight at room temperature to remove any remaining flesh. The skulls were submerged in deionized water to remove residual hydrogen peroxide, soaked in 1% bleach solution for 30 sec, sonicated at 14 V for 1 min, and washed again with deionized water. Samples were brushed using toothpaste, sonicated again in 1% bleach for an additional 30 sec at 14 V, and washed with water. The cleaned skulls were stained by immersion in 1% methylene blue for 15 sec, followed by washing with water until the excess dye was removed.
To measure alveolar bone loss, a dissecting microscope fitted with a video imaging marker measurement system (model VIA-170K; Fryer) was used. Bone loss was determined by measuring the distance between the alveolar bone crest (ABC) and cemento-enamel junction (CEJ) at eight sites on the buccal sides of both left and right maxillary molars. […] Data were analyzed using one-way analysis of variance (ANOVA; Graph Pad Prism, La Jolla, CA), and a pairwise parametric analysis of variance using a Bonferroni multiple-comparison posttest was used to determine the statistical difference among the individual mouse groups. A P value of ≤0.05 was considered statistically significant.

Row | Structure (SMILES) | Early apoptosis (%) ([1]; 5 μM) | Late apoptosis/necrosis (%) ([1]; 5 μM) | Live cells (%) ([1]; 5 μM) | Early apoptosis (%) ([1]; 20 μM) | Late apoptosis/necrosis (%) ([1]; 20 μM) | Live cells (%) ([1]; 20 μM) | Early apoptosis (%) ([1]; 40 μM) | Late apoptosis/necrosis (%) ([1]; 40 μM) | Live cells (%) ([1]; 40 μM) | dose-dependent inhibition of P. gingivalis adherence and biofilm formation [2] | IC50 ([2]; Porphyromonas gingivalis, read-out: 50% inhibitory concentration (IC50) of P. gingivalis adherence in vitro) | inhibition at 40 µM [2] | alveolar bone loss relative to sham-infected mice [3] | alveolar bone loss versus infected untreated mice [3] | overt signs of distress or toxicity in treated mice ([3]; transient exposure (∼20 min) during infection)
1 | O=C(Nc1ccccc1O)c1cccc(N2C(=O)c3ccc(C(=O)Nc4ccccc4O)cc3C2=O)c1 [N17, N-(2-hydroxyphenyl)-2-{3-[(2-hydroxyphenyl)carbamoyl]phenyl}-1,3-dioxo-2,3-dihydro-1H-isoindole-5-carboxamide] | 2.9% | 4.2% | 90.7% | 2.4% | 3.6% | 92.4% | 1.5% | 5.1% | 91.6% | inhibited P. gingivalis adherence and biofilm formation in a dose-dependent manner | ~18 µM | 60% | not significantly different from sham-infected animals | significant reduction in alveolar bone loss | –
2 | Cl.N=c1n(CCN2CCCCC2)c2ccccc2n1CC(O)COc1ccc(Cl)cc1 (centres unmarked) [N7, 1-(4-chlorophenoxy)-3-{2-imino-3-[2-(piperidin-1-yl)ethyl]-2,3-dihydro-1H-1,3-benzodiazol-1-yl}propan-2-ol hydrochloride] | 2.4% | 8.3% | 86.8% | 1.0% | 14.9* % | 74.5% | 5.9% | 40.7* % | 48.3% | inhibited P. gingivalis adherence and biofilm formation in a dose-dependent manner | – | 40% | modest increase in bone loss relative to the sham-infected group | significant reduction in alveolar bone loss | did not exhibit any overt signs of distress or toxicity
3 | Cc1cc([C@H]2CCCN(CC(=O)NC3(C#N)CCCC3)C2)n[nH]1 [V8, N-(1-cyanocyclopentyl)-2-[3-(5-methyl-1H-pyrazol-3-yl)piperidin-1-yl] acetamide] | 3.1% | 4.2% | 91.6% | 2.1% | 3.5% | 92.8% | 2.4% | 3.4% | 92.8% | inhibited P. gingivalis adherence and biofilm formation in a dose-dependent manner | – | ≥ 40% | modest increase in bone loss relative to the sham-infected group | significant reduction in alveolar bone loss | –
